SMILES strings stand for the structures. Counter-ions that a name gives are not always drawn. Some results are limits rather than exact numbers.

For one test, the system named is Escherichia coli ATCC 25922. Kind of test: 50% growth inhibitory concentration (IC50) determination, Iso-Sensitest broth dilution. Type of test: cell-based. The settings on record: Escherichia coli, ATCC25922, 16 h, strain Escherichia coli ATCC 25922; 10-point broth dilution, optical density at 600 nm over 16 h; read-out: Escherichia coli growth inhibition IC50. Here is the method:
50% Growth Inhibitory Concentration (IC50) Determination
The in vitro antimicrobial activity of the compounds was determined according to the following procedure:
The assay used a 10-point Iso-Sensitest broth dilution method to measure quantitatively the in vitro
ATCC 25922, Acinetobacter baumannii ATCC 17961, Klebsiella pneumoniae ATCC 43816 and Staphylococcus aureus ATCC 29213.
Stock compounds in DMSO were serially twofold diluted (e.g. range from 50 to 0.097 μM final concentration) in 384 wells microtiter plates and inoculated with 50 μL of the bacterial suspension in Iso-
ell of 50 μL/well. Microtiter plates were incubated at 35±2° C.
Bacterial cell growth was determined with the measurement of optical density at λ=600 nm each 20 minutes over a time course of 16 h.
Growth inhibition was calculated during the logarithmic growth of the bacterial cells with
Table 1 provides the 50% growth inhibitory concentrations (IC50) in micromoles per liter of the compounds of present invention obtained against the strain Escherichia coli ATCC 25922.
In general terms: Broth dilution looks for growth in wells or tubes with falling amounts of substance.
Take `NC1(COc2cc3c(c(Cl)n2)CC(CNCCC2CN(c4ccc5c(n4)NC(=O)CO5)C(=O)O2)C3)CC1` (centres unmarked) [Example 122, 6-[5-[2-[[3-[(1-aminocyclopropyl)methoxy]-1-chloro-6,7-dihydro-5H-cyclopenta[c]pyridin-6-yl]methylamino]ethyl]-2-oxo-1,3-oxazolidin-3-yl]-4H-pyrido[3,2-b][1,4]oxazin-3-one; formic acid]: the IC50 was below 97.7 nM.
Still for that read-out and setting: next, `CC(N)COc1cc(C#N)c2c(c1)CC(CNCCC1CN(c3cnc4c(n3)NC(=O)CO4)C(=O)O1)C2` (centres unmarked) [Example 193, 6-(2-aminopropoxy)-2-(((2-(2-oxo-3-(3-oxo-3,4-dihydro-2H-pyrazine[2,3-b][1,4]oxazin-6-yl)oxazolidin-5-yl)ethyl)amino)methyl)-2,3-dihydro-1H-indene-4-carbonitrile; 2,2,2-trifluoroacetic acid]: below 97.7 nM; `CS(=O)(=O)N1CC(Oc2cc(F)c3c(c2)CC(CNCCC2CN(c4cnc5c(n4)NC(=O)CO5)C(=O)O2)C3)C1` (centres unmarked) [Example 355, 6-[5-[2-[[4-fluoro-6-(1-methylsalfonylazetidin-3-yl)oxy-2,3-dihydro-1H-inden-2-yl]methylamino]ethyl]-2-oxo-1,3-oxazolidin-3-yl]-4H-pyrazino[2,3-b][1,4]oxazin-3-one hydrochloride]: 162 nM.
In the case of `Cc1ncc(F)c2c1C[C@@H](CNCC[C@@H]1CN(c3cnc4c(n3)NC(=O)CO4)C(=O)O1)C2` [Example 427, 6-[(5R)-5-[2-[[(6R)-4-Fluoro-1-methyl-6,7-dihydro-5H-cyclopenta[c]pyridin-6-yl]methylamino]ethyl]-2-oxo-1,3-oxazolidin-3-yl]-4H-pyrazino[2,3-b][1,4]oxazin-3-one], the IC50 is below 97.7 nM.
The same measure, in the same setting: next, `N#Cc1c(OCCN2CCOCC2)ccc2c1CC(CNCCC1CN(c3ccc4c(n3)NC(=O)CO4)C(=O)O1)C2` (centres unmarked) [Example 54, 5-(2-morpholin-4-ylethoxy)-2-[[2-[2-oxo-3-(3-oxo-4H-pyrido[3,2-b][1,4]oxazin-6-yl)-1,3-oxazolidin-5-yl]ethylamino]methyl]-2,3-dihydro-1H-indene-4-carbonitrile; formic acid]: 357 nM; `Cc1ncc(F)c2c1CC(CNCCc1nn(-c3ccc4c(n3)NC(=O)CO4)c(=O)o1)C2` (centres unmarked) [Example 68, 6-[5-[2-[(4-fluoro-1-methyl-6,7-dihydro-5H-cyclopenta[c]pyridin-6-yl)methylamino]ethyl]-2-oxo-1,3,4-oxadiazol-3-yl]-4H-pyrido[3,2-b][1,4]oxazin-3-one]: 175 nM.
Regarding `O=C1COc2ccc(N3CC([C@H]4C[C@@H](NC5Cc6cccc(Cl)c6C5)C4)OC3=O)nc2N1` (stereo partly drawn) [Example 16, 6-[5-[cis-3-[(4-chloro-2,3-dihydro-1H-inden-2-yl)amino]cyclobutyl]-2-oxo-1,3-oxazolidin-3-yl]-4H-pyrido[3,2-b][1,4]oxazin-3-one; formic acid], the IC50 was found to be 840 nM.
On the same count and under the same terms, next, `CNC(=O)COc1nc(C)c2c(c1C)CC(CNCCC1CN(c3cnc4c(n3)NC(=O)CO4)C(=O)O1)C2` (centres unmarked) [Example 111, 2-[[1,4-dimethyl-6-[[2-[2-oxo-3-(3-oxo-4H-pyrazino[2,3-b][1,4]oxazin-6-yl)-1,3-oxazolidin-5-yl]ethylamino]methyl]-6,7-dihydro-5H-cyclopenta[c]pyridin-3-yl]oxy]-N-methylacetamide]: 489 nM; `NC1c2cccc(Cl)c2CC1CNCCC1CN(c2ccc3c(n2)NC(=O)CO3)C(=O)O1` (racemic) [Example 226, 6-[2-Oxo-5-[2-[[rac-1,2-trans-1-amino-4-chloro-2,3-dihydro-1H-inden-2-yl]methylamino]ethyl]-1,3-oxazolidin-3-yl]-4H-pyrido[3,2-b][1,4]oxazin-3-one]: below 97.7 nM; `CNC(=O)COc1ccc2c(c1C#N)CC(CNCCC1CN(c3cnc4c(n3)NC(=O)CO4)C(=O)O1)C2` (centres unmarked) [Example 286, 2-[[4-cyano-2-[[2-[2-oxo-3-(3-oxo-4H-pyrazino[2,3-b][1,4]oxazin-6-yl)-1,3-oxazolidin-5-yl]ethylamino]methyl]-2,3-dihydro-1H-inden-5-yl]oxy]-N-methylacetamide]: below 97.7 nM.
With `O=C1COc2ccc(N3CC(CCNCC4Cc5c(Cl)cccc5C4O)OC3=O)nc2N1` (racemic) [Example 230, 6-[2-Oxo-5-[2-[[rac-1,2-trans-4-chloro-1-hydroxy-2,3-dihydro-1H-inden-2-yl]methylamino]ethyl]-1,3-oxazolidin-3-yl]-4H-pyrido[3,2-b][1,4]oxazin-3-one], the IC50 is below 97.7 nM.
As for `N#Cc1cccc2c1CC(CN[C@H]1C[C@@H](C3CN(c4ccc5c(n4)NC(=O)CO5)C(=O)O3)C1)C2` (stereo partly drawn) [Example 96, 2-[[[cis-3-[2-oxo-3-(3-oxo-4H-pyrido[3,2-b][1,4]oxazin-6-yl)-1,3-oxazolidin-5-yl]cyclobutyl]amino]methyl]-2,3-dihydro-1H-indene-4-carbonitrile; formic acid], the IC50 came out at 187 nM.
As for `Cc1nc(OCC2CNC(=O)C2)c(C)c2c1CC(CNCCC1CN(c3ccc4c(n3)NC(=O)CO4)C(=O)O1)C2` (centres unmarked) [Example 102, 6-[5-[2-[[1,4-dimethyl-3-[(5-oxopyrrolidin-3-yl)methoxy]-6,7-dihydro-5H-cyclopenta[c]pyridin-6-yl]methylamino]ethyl]-2-oxo-1,3-oxazolidin-3-yl]-4H-pyrido[3,2-b][1,4]oxazin-3-one], the IC50 was 871 nM.
As to `COc1nc(C)c2c(c1F)CC(CNCCC1CN(c3cnc4c(n3)NC(=O)CO4)C(=O)O1)C2` (centres unmarked) [Example 397, 6-[5-[2-[(4-fluoro-3-methoxy-1-methyl-6,7-dihydro-5H-cyclopenta[c]pyridin-6-yl)methylamino]ethyl]-2-oxo-1,3-oxazolidin-3-yl]-4H-pyrazino[2,3-b][1,4]oxazin-3-one], the IC50 is below 97.7 nM.
As for `N#Cc1cccc2c1C(O)C(CNCCC1CN(c3ccc4c(n3)NC(=O)CS4)C(=O)O1)C2` (racemic) [Example 152, rac-2,3-trans-3-hydroxy-2-[[2-[2-oxo-3-(3-oxo-4H-pyrido[3,2-b][1,4]thiazin-6-yl)-1,3-oxazolidin-5-yl]ethylamino]methyl]-2,3-dihydro-1H-indene-4-carbonitrile; formic acid], the IC50 was determined as 149 nM.
As to `O=C1COc2ncc(N3CC(CCNCC4Cc5c(F)cnc(-c6cnc[nH]6)c5C4)OC3=O)nc2N1` (centres unmarked) [Example 433, 6-[5-[2-[[4-Fluoro-1-(1H-imidazol-5-yl)-6,7-dihydro-5H-cyclopenta[c]pyridin-6-yl]methylamino]ethyl]-2-oxo-1,3-oxazolidin-3-yl]-4H-pyrazino[2,3-b][1,4]oxazin-3-one], the IC50 was below 97.7 nM.
Take `NC1(COc2cc(Cl)c3c(c2)CC(NCCCC2CN(c4ccc5c(n4)NC(=O)CO5)C(=O)O2)C3)CC1` (centres unmarked) [Example 180, 6-[5-[3-[[6-[(1-aminocyclopropyl)methoxy]-4-chloro-2,3-dihydro-1H-inden-2-yl]amino]propyl]-2-oxo-1,3-oxazolidin-3-yl]-4H-pyrido[3,2-b][1,4]oxazin-3-one]: the IC50 was below 97.7 nM.
With `NC1c2ccnc(Cl)c2CC1CNCCC1CN(c2ccc3c(n2)NC(=O)CO3)C(=O)O1` (racemic) [Example 146, 6-[2-oxo-5-[2-[[rac-5,6-cis-5-amino-1-chloro-6,7-dihydro-5H-cyclopenta[c]pyridin-6-yl]methylamino]ethyl]-1,3-oxazolidin-3-yl]-4H-pyrido[3,2-b][1,4]oxazin-3-one; formic acid], the IC50 turned out to be 1010 nM.
The same measure, in the same setting: next, `N#Cc1cccc2c1CC(CNCCC1CN(c3ccc4c(n3)NC(=O)CO4)C(=O)O1)C2N` (racemic) [Example 228, rac-1,2-trans-1-Amino-2-[[2-[2-oxo-3-(3-oxo-4H-pyrido[3,2-b][1,4]oxazin-6-yl)-1,3-oxazolidin-5-yl]ethylamino]methyl]-2,3-dihydro-1H-indene-4-carbonitrile]: 174 nM; `N#Cc1cccc2c1CC(CNCCC1CN(c3ccc4c(n3)NC(=O)CO4)C(=O)O1)C2` (centres unmarked) [Example 5, 2-[[2-[2-oxo-3-(3-oxo-4H-pyrido[3,2-b][1,4]oxazin-6-yl)-1,3-oxazolidin-5-yl]ethylamino]methyl]-2,3-dihydro-1H-indene-4-carbonitrile]: below 97.7 nM.
Take `Cc1ncc(Cl)c2c1CC(CNCCC1CN(c3ccc4c(n3)NC(=O)CO4)C(=O)O1)C2` (centres unmarked) [Example 55, 6-[5-[2-[(4-chloro-1-methyl-6,7-dihydro-5H-cyclopenta[c]pyridin-6-yl)methylamino]ethyl]-2-oxo-1,3-oxazolidin-3-yl]-4H-pyrido[3,2-b][1,4]oxazin-3-one; formic acid]: the IC50 was below 97.7 nM.

The same test, now with this note: strain Escherichia coli ATCC 25922; 10-point broth dilution, optical density at 600 nm over 16 h; read-out: Escherichia coli growth inhibition IC50.
As to `Cc1nccc2c1CC(NCCCc1cn(-c3cnc4c(n3)NC(=O)CO4)c(=O)o1)C2` (single isomer, unassigned; enantiomer b) [Example 370, 6-[5-[3-[(1-Methyl-6,7-dihydro-5H-cyclopenta[c]pyridin-6-yl)amino]propyl]-2-oxo-1,3-oxazol-3-yl]-4H-pyrazino[2,3-b][1,4]oxazin-3-one; formic acid, Enantiomer B], the IC50 worked out at 195 nM.
For the compound `O=C1COc2ccc(N3CC(CCNCC4Cc5c(Cl)cccc5C4O)OC3=O)nc2N1` (racemic) [Example 231, 6-[2-Oxo-5-[2-[[rac-1,2-cis-4-chloro-1-hydroxy-2,3-dihydro-1H-inden-2-yl]methylamino]ethyl]-1,3-oxazolidin-3-yl]-4H-pyrido[3,2-b][1,4]oxazin-3-one], the IC50 came to 176 nM.

What is called IC50 is the concentration that inhibits the measured activity by half.

For the origin of these results see patent publication US20230167127A1, “COMPOUNDS AND THEIR USE IN THE TREATMENT OF BACTERIAL INFECTION” (Hoffmann-La Roche Inc., priority 2020, published 2023).
